According to patent US11214803B2, “Modulators of YAP1 expression” (Ionis Pharmaceuticals, Inc., priority 2019, dated 2022):
Strand notation (5' to 3'): a small letter for the sugar, then the base; units joined by * are phosphorothioate-linked, units joined directly phosphodiester-linked; [ ] holds rarer units or linkages, { } end groups; capitals alone tell only the bases. e = 2'-O-(2-methoxyethyl) (MOE); k = constrained ethyl (cEt); [5mC] = 5-methylcytosine; d = 2'-deoxy (DNA); m = 2'-O-methyl

Test system: Yap1 mRNA
Test: Antisense inhibition of human Yap1 in SNU-449 cells by modified oligonucleotides, single dose (Example 5, RTS36584)
Type: cell-based
Details: Table 39; SNU-449 cells, 10,000 cells per well, free uptake, 2,000 nM oligonucleotide, approx. 48 hours; RTS36584; normalized to RIBOGREEN; Yap1 mRNA relative to untreated control
In short: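 SNU-449 cells were given 2,000 nM oligonucleotide by free uptake for about 48 h. Yap1 mRNA was then measured by RT-qPCR with primer probe set RTS36584, normalized to total RNA by RIBOGREEN and expressed as percent of untreated control.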

First: 1198373 (kA*dA*dA*dT*dT*dG*dT*d[5mC]*dT*d[5mC]*dA*kT*eG*k[5mC]*e[5mC]*kT; antisense) [Compound 1198373]
Second: 1198432 (kT*dA*dA*dT*dA*dT*dT*dG*d[5mC]*dA*dA*kT*e[5mC]*kT*eG*kT; antisense) [Compound 1198432]
The “YAP1 (% UTC)” value of the first is lower: 40 % UTC for the first, 70 % UTC for the second.

Same assay, conditions: Table 40 (separate experiment); SNU-449 cells, 10,000 cells per well, free uptake, 2,000 nM oligonucleotide, approx. 48 hours; RTS36584; normalized to RIBOGREEN; Yap1 mRNA relative to untreated control

Compared with “1198758 (kA*eT*kA*dG*dT*dG*d[5mC]*dT*dT*dT*dG*dG*eA*eA*kG*kA; antisense) [Compound 1198758]”, “1198783 (antisense kA*eT*kG*dT*dA*dA*dT*dA*dT*dT*dG*d[5mC]*eA*eA*kT*k[5mC]) [Compound 1198783]” is higher in “YAP1 (% UTC)” value: 47 % UTC for the first, 78 % UTC for the second.

Going from “1198795 (antisense kT*eA*kA*dG*dG*dT*dT*dT*d[5mC]*d[5mC]*d[5mC]*dA*eG*eA*kT*kT) [Compound 1198795]” to “1198730 (kT*eA*kT*dA*dT*dT*dA*dG*dA*dG*dT*dA*eT*eG*kT*kG; antisense) [Compound 1198730]”, the “YAP1 (% UTC)” value rises from 43 % UTC to 57 % UTC.

First: 1198747 (kA*eG*k[5mC]*dA*d[5mC]*dT*dT*dT*dT*dA*d[5mC]*dA*eT*eT*kA*kG; antisense) [Compound 1198747]
Second: 1198428 (kG*dA*d[5mC]*dA*dA*d[5mC]*dT*d[5mC]*dT*dT*dA*kT*eA*kT*eG*kG; antisense) [Compound 1198428]
The “YAP1 (% UTC)” value of the first is lower: 38 % UTC for the first, 62 % UTC for the second.

Going from “1198767 (kA*eT*kT*d[5mC]*dA*dG*dA*dT*dT*dT*dA*dG*eG*eA*kT*kG; antisense) [Compound 1198767]” to “1198716 (kA*eA*kT*dT*dG*dT*d[5mC]*dT*d[5mC]*dA*dT*dG*e[5mC]*e[5mC]*kT*kT; antisense) [Compound 1198716]”, the “YAP1 (% UTC)” value falls from 65 % UTC to 27 % UTC.

Same assay, conditions: Table 41; SNU-449 cells, 10,000 cells per well, free uptake, 2,000 nM modified oligonucleotide, approximately 48 hours; RTS36584; normalized to RIBOGREEN; Yap1 mRNA relative to untreated control cells

“1198662 (antisense kT*kT*dT*dG*dG*dA*dA*dG*dA*dT*d[5mC]*dT*kG*eA*kA*eA) [Compound 1198662]” was tested, and the “YAP1 (% UTC)” value was 83 % UTC.

Same assay, conditions: Table 42 (separate experiment); SNU-449 cells, 10,000 cells per well, free uptake, 2,000 nM modified oligonucleotide, approximately 48 hours; RTS36584; normalized to RIBOGREEN; Yap1 mRNA relative to untreated control cells

First: 1198679 (antisense TTATATGGTTTTGTGT; cEt/MOE gapmer, phosphorothioate, chemistry not fully specified) [Compound 1198679]
Second: 1198696 (antisense kT*kG*dT*dA*dT*dG*dT*d[5mC]*dA*dG*dA*dA*kG*eA*kG*eT) [Compound 1198696]
The “YAP1 (% UTC)” value of the first is higher: 54 % UTC for the first, 12 % UTC for the second.

Same assay, conditions: Table 43 experiment; SNU-449 cells, 10,000 cells per well, free uptake, 2,000 nM, approximately 48 hours; RTS36584; Yap1 mRNA normalized to RIBOGREEN, relative to untreated control cells

Compared with “1198481 (antisense k[5mC]*kT*dT*dT*dT*dA*d[5mC]*dA*dT*dT*dA*eG*kG*eA*kA*e[5mC]) [Compound 1198481]”, “1198216 (kT*kA*dT*dA*dA*d[5mC]*dT*dG*dG*dG*d[5mC]*eA*eA*eA*kT*kT; antisense) [Compound 1198216]” is higher in “YAP1 (% UTC)” value: 72 % UTC for the first, 89 % UTC for the second.

Same assay, conditions: Table 44 experiment; SNU-449 cells, 10,000 cells per well, free uptake, 2,000 nM, approximately 48 hours; RTS36584; Yap1 mRNA normalized to RIBOGREEN, relative to untreated control cells

In the case of “1198540 (antisense kA*kG*dA*d[5mC]*dT*dA*dA*dG*dT*dA*dA*eG*kG*eT*kT*eT) [Compound 1198540]”, the “YAP1 (% UTC)” value is reported as 51 % UTC.

Same assay, conditions: Table 45; Yap1 mRNA as percent of untreated control, SNU-449 cells, single dose

Compared with “1198975 (kT*kT*dA*dG*dA*d[5mC]*dT*dA*dA*dG*dT*kA*dA*kG*dG*kT; antisense) [Compound 1198975]”, “1198910 (kA*kG*dG*dT*dA*dT*dA*dA*d[5mC]*dT*dG*kG*dG*k[5mC]*dA*kA; antisense) [Compound 1198910]” is lower in “YAP1 (% UTC)” value: 52 % UTC for the first, 40 % UTC for the second.

Same assay, conditions: Table 46; Yap1 mRNA as percent of untreated control, SNU-449 cells, single dose

Compared with “1198806 (antisense kA*kA*dT*dT*dG*dT*d[5mC]*dT*d[5mC]*dA*dT*kG*e[5mC]*k[5mC]*eT*kT) [Compound 1198806]”, “1198883 (kA*kA*dG*dT*dA*dA*dG*dG*dT*dT*dT*k[5mC]*e[5mC]*k[5mC]*eA*kG; antisense) [Compound 1198883]” is higher in “YAP1 (% UT)” value: 33 % UT for the first, 47 % UT for the second.

“1198838 (kT*kT*dT*dG*dG*dA*dA*dG*dA*dT*d[5mC]*kT*eG*kA*eA*kA; antisense) [Compound 1198838]” was tested, and the “YAP1 (% UT)” value was 66 % UT.

Same assay, conditions: Table 48; Yap1 mRNA level relative to untreated control; modified oligonucleotides targeting SEQ ID NO.: 1 and 2

Going from “1198309 (k[5mC]*kT*kT*dT*dT*dA*d[5mC]*dA*dT*dT*dA*dG*kG*eA*kA*e[5mC]; antisense) [Compound 1198309]” to “1198345 (kA*kA*kT*dA*dT*dT*dG*d[5mC]*dA*dA*dT*d[5mC]*kT*eG*kT*e[5mC]; antisense) [Compound 1198345]”, the “YAP1 (% UT)” value falls from 85 % UT to 75 % UT.

Going from “1198322 (kG*kT*kG*d[5mC]*dT*dT*dT*dG*dG*dA*dA*dG*kA*eT*k[5mC]*eT; antisense) [Compound 1198322]” to “1198320 (kG*k[5mC]*kT*dT*dT*dG*dG*dA*dA*dG*dA*dT*k[5mC]*eT*kG*eA; antisense) [Compound 1198320]”, the “YAP1 (% UT)” value falls from 48 % UT to 26 % UT.

In the case of “1198298 (kT*kA*kT*dT*dA*dG*dA*dG*dT*dA*dT*dG*kT*eG*kG*e[5mC]; antisense) [Compound 1198298]”, the “YAP1 (% UT)” value is reported as 23 % UT.

Same assay, conditions: Table 49; Yap1 mRNA level relative to untreated control; modified oligonucleotides targeting SEQ ID NO.: 1 and 2

“1198574 (antisense kG*kG*kA*dA*dG*dA*dT*d[5mC]*dT*dG*dA*dA*kA*k[5mC]*kT*e[5mC]) [Compound 1198574]” was tested, and the “YAP1 (% UT)” value was 37 % UT.

Same assay, conditions: Table 50; Yap1 mRNA remaining as percent of untreated control (UT), SNU-449 cells, single dose

Compared with “1197235 (antisense kA*kT*kT*dA*mG*dA*dG*dT*dA*dT*dG*dT*dG*kG*k[5mC]*kA) [Compound 1197235]”, “1197244 (antisense kT*kT*kA*d[5mC]*mA*dT*dT*dA*dG*dG*dA*dA*d[5mC]*kA*kA*kG) [Compound 1197244]” is higher in “YAP1 (% UT)” value: 16 % UT for the first, 60 % UT for the second.

With “1198606 (antisense kT*kG*kT*dA*dA*dT*dA*dT*dT*dG*d[5mC]*dA*kA*kT*k[5mC]*eT) [Compound 1198606]” the “YAP1 (% UT)” value was 25 % UT.

Same assay, conditions: Table 51; Yap1 mRNA remaining as percent of untreated control (UT), SNU-449 cells, single dose

Going from “1197310 (kT*kA*kT*dG*mU*dA*dA*dT*dA*dT*dT*dG*d[5mC]*kA*kA*kT; antisense) [Compound 1197310]” to “1200786 (kA*kA*kT*dT*dG*mU*d[5mC]*dT*d[5mC]*dA*dT*dG*d[5mC]*k[5mC]*kT*kT; antisense) [Compound 1200786]”, the “YAP1 (% UT)” value falls from 109 % UT to 21 % UT.

“1197264 (kA*kT*kT*dG*mC*dA*dA*dT*d[5mC]*dT*dG*dT*d[5mC]*kT*kG*kA) [Compound 1197264]” was tested, and the “YAP1 (% UT)” value was 33 % UT.

Same assay, conditions: Table 52; Yap1 mRNA, modified oligonucleotides targeting SEQ ID NO: 1 and 2

First: 1200853 (kA*kT*kG*dT*dA*mA*dT*dA*dT*dT*dG*d[5mC]*dA*kA*kT*k[5mC]; antisense) [Compound 1200853]
Second: 1200869 (k[5mC]*kT*kA*dA*dG*mU*dA*dA*dG*dG*dT*dT*dT*k[5mC]*k[5mC]*k[5mC]; antisense) [Compound 1200869]
The “YAP1 (% UT)” value of the first is higher: 69 % UT for the first, 25 % UT for the second.

With “1200807 (k[5mC]*kT*kG*dA*dG*mG*dT*dA*dT*dA*dA*d[5mC]*dT*kG*kG*kG; antisense) [Compound 1200807]” the “YAP1 (% UT)” value was 69 % UT.

Same assay, conditions: Yap1 mRNA, percent of untreated control; modified oligonucleotides targeting SEQ ID NO: 1 and 2; Table 47

Compared with “1197207 (antisense kA*kA*kT*dA*dT*dT*dG*d[5mC]*dA*dA*dT*d[5mC]*dT*kG*kT*k[5mC]) [Compound 1197207]”, “1074799 (kT*kG*k[5mC]*dT*dT*dT*dG*dG*dA*dA*dG*dA*dT*k[5mC]*kT*kG) [Compound 1074799]” is lower in “YAP1 (% UT)” value: 51 % UT for the first, 21 % UT for the second.

Compared with “1197221 (antisense kA*kG*kT*dA*dA*dG*dG*dT*dT*dT*d[5mC]*d[5mC]*d[5mC]*kA*kG*kA) [Compound 1197221]”, “1074462 (kG*kG*kA*dA*dA*dT*dT*dG*dT*d[5mC]*dT*d[5mC]*dA*kT*kG*k[5mC]; antisense) [Compound 1074462]” is lower in “YAP1 (% UT)” value: 42 % UT for the first, 7 % UT for the second.

First: 1197179 (antisense kT*kG*kG*dA*dA*dA*dT*dT*dG*dT*d[5mC]*dT*d[5mC]*kA*kT*kG) [Compound 1197179]
Second: 1197198 (antisense kA*kT*kT*d[5mC]*dA*dG*dA*dT*dT*dT*dA*dG*dG*kA*kT*kG) [Compound 1197198]
The “YAP1 (% UT)” value of the first is lower: 16 % UT for the first, 139 % UT for the second.

Going from “1197226 (antisense kA*kG*kA*d[5mC]*dT*dA*dA*dG*dT*dA*dA*dG*dG*kT*kT*kT) [Compound 1197226]” to “1197225 (antisense kG*kA*k[5mC]*dT*dA*dA*dG*dT*dA*dA*dG*dG*dT*kT*kT*k[5mC]) [Compound 1197225]”, the “YAP1 (% UT)” value falls from 67 % UT to 46 % UT.

“1197181 (antisense kT*kT*kA*d[5mC]*dA*dT*dT*dA*dG*dG*dA*dA*d[5mC]*kA*kA*kG) [Compound 1197181]” was tested, and the “YAP1 (% UT)” value was 87 % UT.
